Source: PubChem BioAssay AID248 (DTP/NCI, 2004)
Where “and” joins values, the source holds several entries; their conditions need not be identical. Equal entries are not always repeated. Inconclusive results and toxic doses are left out. Rule as the data show it: active = T/C of 150% or more; inactive = T/C below 125%.

Tested on: L1210 leukemia ip in BDF1 mice, survival T/C
Assay: NCI In Vivo Anticancer Drug Screen. Data for tumor model L1210 Leukemia (intraperitoneal) in B6D2F1 (BDF1) mice
Details: higher = longer survival
How it was run: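 Survival endpoint. Drug-treated group vs vehicle group, expressed as T divided by C. Tumor passaged by transplantation.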

[1] = endpoint: mean survival time, dose: 100.0 mg/kg/injection, schedule: Q01DX001 (ip), vehicle: saline
[2] = endpoint: mean survival time, dose: 200.0 mg/kg/injection, schedule: Q01DX001 (ip), vehicle: saline
[3] = endpoint: mean survival time, dose: 400.0 mg/kg/injection, schedule: Q01DX001 (ip), vehicle: saline
[4] = endpoint: mean survival time, dose: 100.0 mg/kg/injection, schedule: Q04DX003 (ip), vehicle: saline with Tween-80
[5] = endpoint: mean survival time, dose: 200.0 mg/kg/injection, schedule: Q04DX003 (ip), vehicle: saline with Tween-80
[6] = endpoint: mean survival time, dose: 400.0 mg/kg/injection, schedule: Q04DX003 (ip), vehicle: saline with Tween-80
[7] = endpoint: mean survival time, dose: 100.0 mg/kg/injection, schedule: Q04DX002 (ip), vehicle: Klucel (hydroxypropylcellulose) (HPC)
[8] = endpoint: mean survival time, dose: 200.0 mg/kg/injection, schedule: Q04DX002 (ip), vehicle: Klucel (hydroxypropylcellulose) (HPC)
[9] = endpoint: mean survival time, dose: 400.0 mg/kg/injection, schedule: Q04DX002 (ip), vehicle: Klucel (hydroxypropylcellulose) (HPC)
[10] = endpoint: mean survival time, dose: 200.0 mg/kg/injection, schedule: Q01DX001 (sc), vehicle: steriod suspending solution
[11] = endpoint: mean survival time, dose: 400.0 mg/kg/injection, schedule: Q01DX001 (sc), vehicle: steriod suspending solution

Measured: T/C

CN(C)C1C(=O)C(C(N)=O)=C(O)C2(O)C(=O)C3=C(O)c4c(O)cccc4C(C)(O)C3CC12 (stereo unspecified)
inactive: [1] 94 % of control | [2] 96 % of control | [3] 100 % of control | endpoint: median survival time, dose: 20.0 mg/kg/injection, schedule: Q04DX003 (ip), vehicle: water 103 % of control and 105 % of control | endpoint: median survival time, dose: 40.0 mg/kg/injection, schedule: Q04DX003 (ip), vehicle: water 97 % of control and 100 % of control | endpoint: median survival time, dose: 80.0 mg/kg/injection, schedule: Q04DX003 (ip), vehicle: water 97 % of control and 100 % of control | endpoint: median survival time, dose: 160.0 mg/kg/injection, schedule: Q04DX003 (ip), vehicle: water 105 % of control and 111 % of control

CCCCCCCCCCCCCCCCCCNC(=O)Nc1ccccc1CC
inactive: endpoint: mean survival time, dose: 100.0 mg/kg/injection, schedule: Q01DX009 (sc), vehicle: olive oil, sesame oil, peanut oil 104 % of control | endpoint: mean survival time, dose: 100.0 mg/kg/injection, schedule: Q04DX003 (sc), vehicle: olive oil, sesame oil, peanut oil 98 % of control | endpoint: mean survival time, dose: 200.0 mg/kg/injection, schedule: Q01DX009 (sc), vehicle: olive oil, sesame oil, peanut oil 104 % of control | endpoint: mean survival time, dose: 200.0 mg/kg/injection, schedule: Q04DX003 (sc), vehicle: olive oil, sesame oil, peanut oil 94 % of control | endpoint: mean survival time, dose: 400.0 mg/kg/injection, schedule: Q01DX009 (sc), vehicle: olive oil, sesame oil, peanut oil 106 % of control | endpoint: mean survival time, dose: 400.0 mg/kg/injection, schedule: Q04DX003 (sc), vehicle: olive oil, sesame oil, peanut oil 109 % of control

CCCCC(CC)C(O)C1CCCCC1O (stereo unspecified)
inactive: endpoint: mean survival time, dose: 100.0 mg/kg/injection, schedule: Q01DX009 (ip), vehicle: Klucel (hydroxypropylcellulose) (HPC) 102 % of control | endpoint: mean survival time, dose: 100.0 mg/kg/injection, schedule: Q04DX003 (ip), vehicle: Klucel (hydroxypropylcellulose) (HPC) 101 % of control | endpoint: mean survival time, dose: 200.0 mg/kg/injection, schedule: Q01DX009 (ip), vehicle: Klucel (hydroxypropylcellulose) (HPC) 96 % of control | endpoint: mean survival time, dose: 200.0 mg/kg/injection, schedule: Q04DX003 (ip), vehicle: Klucel (hydroxypropylcellulose) (HPC) 96 % of control | endpoint: mean survival time, dose: 400.0 mg/kg/injection, schedule: Q01DX009 (ip), vehicle: Klucel (hydroxypropylcellulose) (HPC) 86 % of control | endpoint: mean survival time, dose: 400.0 mg/kg/injection, schedule: Q04DX003 (ip), vehicle: Klucel (hydroxypropylcellulose) (HPC) 102 % of control

C1N2CN3CN1CN(C2)C3 (tested in a mixture with another compound)
inactive: [4] 107 % of control | [5] 103 % of control | [6] 102 % of control

O=CNNC(=O)c1ccccn1
inactive: endpoint: mean survival time, dose: 50.0 mg/kg/injection, schedule: Q01DX001 (ip), vehicle: water 108 % of control | endpoint: mean survival time, dose: 50.0 mg/kg/injection, schedule: Q01DX009 (ip), vehicle: saline 98 % of control | endpoint: mean survival time, dose: 50.0 mg/kg/injection, schedule: Q04DX003 (ip), vehicle: saline 100 % of control | endpoint: mean survival time, dose: 100.0 mg/kg/injection, schedule: Q01DX001 (ip), vehicle: water 108 % of control | endpoint: mean survival time, dose: 100.0 mg/kg/injection, schedule: Q01DX009 (ip), vehicle: saline 101 % of control | endpoint: mean survival time, dose: 100.0 mg/kg/injection, schedule: Q04DX003 (ip), vehicle: saline 96 % of control | endpoint: mean survival time, dose: 200.0 mg/kg/injection, schedule: Q01DX009 (ip), vehicle: saline 114 % of control | endpoint: mean survival time, dose: 200.0 mg/kg/injection, schedule: Q04DX003 (ip), vehicle: saline 109 % of control

CC(=O)N/N=C(/C)C(O)(c1ccccc1)c1ccccc1
inactive: endpoint: mean survival time, dose: 100.0 mg/kg/injection, schedule: Q01DX009 (ip), vehicle: saline with Tween-80 95 % of control | [4] 100 % of control | endpoint: mean survival time, dose: 200.0 mg/kg/injection, schedule: Q01DX009 (ip), vehicle: saline with Tween-80 92 % of control | [5] 101 % of control | endpoint: mean survival time, dose: 400.0 mg/kg/injection, schedule: Q01DX009 (ip), vehicle: saline with Tween-80 97 % of control | [6] 101 % of control

CN(C)c1ccc(SSc2ccc(N(C)C)cc2)cc1
inactive: [1] 104 % of control | [7] 98 % of control | [2] 93 % of control | [8] 102 % of control | [3] 98 % of control | [9] 91 % of control

CCOC(=O)c1ccc(NC(=O)CC(C)=O)cc1
inactive: [4] 103 % of control | [5] 101 % of control | [6] 97 % of control

O=C=Nc1ccc(C(=O)c2ccccc2)cc1
inactive: endpoint: mean survival time, dose: 20.0 mg/kg/injection, schedule: Q01DX009 (ip), vehicle: saline with Tween-80 93 % of control | endpoint: mean survival time, dose: 40.0 mg/kg/injection, schedule: Q01DX009 (ip), vehicle: saline with Tween-80 93 % of control | endpoint: mean survival time, dose: 80.0 mg/kg/injection, schedule: Q01DX009 (ip), vehicle: saline with Tween-80 90 % of control | endpoint: mean survival time, dose: 160.0 mg/kg/injection, schedule: Q01DX009 (ip), vehicle: saline with Tween-80 90 % of control | endpoint: mean survival time, dose: 320.0 mg/kg/injection, schedule: Q01DX009 (ip), vehicle: saline with Tween-80 93 % of control

O=[N+]([O-])c1cc(S(=O)(=O)c2ccc(S)c([N+](=O)[O-])c2)ccc1S
inactive: [7] 89 % of control | [8] 92 % of control | [9] 92 % of control

CC(C)CCC[C@@H](C)[C@H]1CC[C@H]2[C@@H]3CC=C4C[C@@H](OC(=O)Cc5ccc(N(CCCl)CCCl)cc5)CC[C@]4(C)[C@H]3CC[C@]12C
inactive: endpoint: mean survival time, dose: 50.0 mg/kg/injection, schedule: Q01DX001 (sc), vehicle: steriod suspending solution 110 % of control | endpoint: mean survival time, dose: 50.0 mg/kg/injection, schedule: Q01DX009 (oral), vehicle: saline 98 % of control | endpoint: mean survival time, dose: 100.0 mg/kg/injection, schedule: Q01DX001 (sc), vehicle: steriod suspending solution 96 % of control | endpoint: mean survival time, dose: 100.0 mg/kg/injection, schedule: Q01DX009 (oral), vehicle: other 121 % of control | endpoint: mean survival time, dose: 100.0 mg/kg/injection, schedule: Q01DX009 (oral), vehicle: saline 98 % of control | endpoint: mean survival time, dose: 100.0 mg/kg/injection, schedule: Q01DX009 (sc), vehicle: other 109 % of control | [10] 100 % of control | endpoint: mean survival time, dose: 200.0 mg/kg/injection, schedule: Q01DX009 (oral), vehicle: saline 102 % of control | endpoint: mean survival time, dose: 200.0 mg/kg/injection, schedule: Q01DX009 (sc), vehicle: other 111 % of control | endpoint: mean survival time, dose: 250.0 mg/kg/injection, schedule: Q01DX015 (ip), vehicle: steriod suspending solution 95 % of control | [11] 115 % of control | endpoint: mean survival time, dose: 400.0 mg/kg/injection, schedule: Q01DX009 (oral), vehicle: other 116 % of control | endpoint: mean survival time, dose: 400.0 mg/kg/injection, schedule: Q01DX009 (oral), vehicle: saline 91 % of control | endpoint: mean survival time, dose: 400.0 mg/kg/injection, schedule: Q01DX009 (sc), vehicle: other 106 % of control | endpoint: mean survival time, dose: 400.0 mg/kg/injection, schedule: Q01DX015 (ip), vehicle: steriod suspending solution 111 % of control | endpoint: mean survival time, dose: 800.0 mg/kg/injection, schedule: Q01DX009 (oral), vehicle: other 98 % of control | endpoint: mean survival time, dose: 800.0 mg/kg/injection, schedule: Q01DX009 (oral), vehicle: saline 96 % of control

CC1=C(/C=C/C(C)=C/C=C/C(C)=C/CO)C(C)(C)CCC1
inactive: endpoint: mean survival time, dose: 50.0 mg/kg/injection, schedule: Q01DX009 (ip), vehicle: steriod suspending solution 90 % of control | endpoint: mean survival time, dose: 100.0 mg/kg/injection, schedule: Q01DX001 (ip), vehicle: other 100 % of control | endpoint: mean survival time, dose: 100.0 mg/kg/injection, schedule: Q01DX009 (ip), vehicle: steriod suspending solution 95 % of control | endpoint: mean survival time, dose: 150.0 mg/kg/injection, schedule: Q01DX001 (ip), vehicle: other 98 % of control | endpoint: mean survival time, dose: 200.0 mg/kg/injection, schedule: Q01DX001 (ip), vehicle: other 95 % of control and 102 % of control | [10] 101 % of control | [11] 98 % of control

O=C(Nc1cccc2ccccc12)NC1CC1
inactive: endpoint: mean survival time, dose: 100.0 mg/kg/injection, schedule: Q01DX009 (ip), vehicle: other 94 % of control | endpoint: mean survival time, dose: 100.0 mg/kg/injection, schedule: Q04DX003 (ip), vehicle: other 97 % of control | endpoint: mean survival time, dose: 200.0 mg/kg/injection, schedule: Q01DX009 (ip), vehicle: other 94 % of control | endpoint: mean survival time, dose: 200.0 mg/kg/injection, schedule: Q04DX003 (ip), vehicle: other 96 % of control | endpoint: mean survival time, dose: 400.0 mg/kg/injection, schedule: Q01DX009 (ip), vehicle: other 94 % of control | endpoint: mean survival time, dose: 400.0 mg/kg/injection, schedule: Q04DX003 (ip), vehicle: other 87 % of control

CCOc1cccc(CCC(=O)O)c1
inactive: endpoint: mean survival time, dose: 100.0 mg/kg/injection, schedule: Q04DX003 (ip), vehicle: gum acacia 105 % of control | endpoint: mean survival time, dose: 200.0 mg/kg/injection, schedule: Q04DX003 (ip), vehicle: gum acacia 96 % of control | endpoint: mean survival time, dose: 400.0 mg/kg/injection, schedule: Q04DX003 (ip), vehicle: gum acacia 93 % of control
